# Measured values as given in US8575158B2, “1-phenyl-substituted heterocyclyl derivatives and their use as prostaglandin D2 receptor modulators” (Actelion Pharmaceuticals Ltd., priority 2010, dated 2013).
# pIC50: −log10 of the molar value.
# Target: T1, hCRTH2 receptor (Homo sapiens, UniProt Q9Y5Y4)
# T1 construct: expressed in transfected cells; host or cells: HEK293
# T1 sequence (Q9Y5Y4 1-395): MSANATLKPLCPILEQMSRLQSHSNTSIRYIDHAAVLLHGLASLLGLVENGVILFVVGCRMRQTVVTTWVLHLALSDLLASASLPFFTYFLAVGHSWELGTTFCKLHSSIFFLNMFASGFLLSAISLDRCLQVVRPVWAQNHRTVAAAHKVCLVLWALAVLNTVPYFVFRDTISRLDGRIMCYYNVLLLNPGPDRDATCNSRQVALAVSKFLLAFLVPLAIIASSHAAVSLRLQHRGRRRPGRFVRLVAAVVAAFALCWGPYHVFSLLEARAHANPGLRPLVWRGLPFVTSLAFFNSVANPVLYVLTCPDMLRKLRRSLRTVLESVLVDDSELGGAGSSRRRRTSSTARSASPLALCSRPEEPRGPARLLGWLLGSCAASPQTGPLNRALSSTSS
# Assay: Radioligand displacement assay (3H-PGD2) on hCRTH2 receptor membranes
# Type: binding
# Settings: antagonistic activity; 3H-PGD2 displacement on HEK293-hCRTH2 membrane fragments
# Description: First, recombinant HEK293-hCRTH2 cells were detached from culture plates into 5 ml buffer A/plate (Buffer A: 5 mM Tris, 1 mM MgCl2-6H2O pH=7.4) using a rubber policeman. Cells were then transferred into centrifugation tubes and centrifuged for 5 min at 400 g. The cell pellet was resuspended in the same buffer and tubes were frozen at −80° C. Cells were thawed and membrane fragments were generated by homogenization using a polytron homogenizer (30 seconds). The membrane fragments were then centrifuged at 3000 g for 20 minutes and resuspended in buffer C (Buffer C: 75 mM Tris, 25 mM MgCl2, 250 mM Saccharose pH 7.4). Aliquots of membrane fragments were stored at −20° C.
# Binding assay was performed in a final assay volume of 250 μl. First, 25 μl of test compound, previously diluted in Binding-Buffer (Binding-Buffer: 50 mM Tris-Base, 100 mM NaCl, 1 mM EDTA, 0.1% BSA (protease free), 0.01% NaN3, 10 mM MnCl2, pH 7.0) was placed into each well. After addition of 75 μl Binding-Buffer, 50 μl of the radioligand ^3H-PGD2 (at 2.5 nM (220.000 dpm/well) from ANAWA ART0662) was added to each well. Binding assay was started by addition of 100 μl CRTH2 membrane fragments, reaching a final concentration of 20 μg/well. For non-specific binding, PGD2 was added to the reaction mixture to […] final concentration.
# This assay mix was incubated for 90 minutes at room temperature and then filtered through a GF/C filter 96-well plate which was pre-soaked for 3 hours in 0.5% polyethyleneimine (PEI). The filter-wells were washed three times with ice cold Binding-Buffer. Then, 40 μl of Microscint-40 (Packard) was added to each well and the retained radioactivity quantified in a Topcount (Packard).
row,SMILES,pIC50
1,"COc1ccc2[nH]cc(CCC(=O)N3CCc4ccccc4C3c3cc(F)ccc3OCC(=O)O)c2c1 (racemic) [Example 64, (±)-(4-Fluoro-2-{2-[3-(5-methoxy-1H-indol-3-yl)-propionyl]-1,2,3,4-tetrahydro-isoquinolin-1-yl}-phenoxy)-acetic acid]",7.30
2,"Cc1[nH]c2ccccc2c1CCC(=O)N1CCc2ccccc2C1c1cc(F)ccc1OCC(=O)O (racemic) [Example 65, (±)-(4-Fluoro-2-{2-[3-(2-methyl-1H-indol-3-yl)-propionyl]-1,2,3,4-tetrahydro-isoquinolin-1-yl}-phenoxy)-acetic acid]",6.72
3,"Cn1cc(CCC(=O)N2CCc3ccccc3C2c2cc(F)ccc2OCC(=O)O)c2ccccc21 (racemic) [Example 66, (±)-(4-Fluoro-2-{2-[3-(1-methyl-1H-indol-3-yl)-propionyl]-1,2,3,4-tetrahydro-isoquinolin-1-yl}-phenoxy)-acetic acid]",7.56
4,"O=C(O)COc1ccc(F)cc1C1c2ccccc2CCN1C(=O)[C@@H]1C[C@H]1c1ccccc1 (mixture of isomers) [Example 67, (±)-{4-Fluoro-2-[2-(trans-2-phenyl-cyclopropanecarbonyl)-1,2,3,4-tetrahydro-isoquinolin-1-yl]-phenoxy}-acetic acid]",7.81
5,"O=C(O)COc1ccc(Cl)cc1C1c2ccccc2CCN1C(=O)CC1CC1 (racemic) [Example 68, (±)-{4-Chloro-2-[2-(2-cyclopropyl-acetyl)-1,2,3,4-tetrahydro-isoquinolin-1-yl]-phenoxy}-acetic acid]",6.29
6,"O=C(O)COc1ccc(Cl)cc1C1c2ccccc2CCN1C(=O)C1=Cc2ccccc2OC1 (racemic) [Example 69, (±)-{4-Chloro-2-[2-(2H-chromene-3-carbonyl)-1,2,3,4-tetrahydro-isoquinolin-1-yl]-phenoxy}-acetic acid]",6.42
7,"O=C(O)COc1ccc(Cl)cc1C1c2ccccc2CCN1C(=O)Cn1ccc2ccccc21 (racemic) [Example 72, (±)-{4-Chloro-2-[2-(2-indol-1-yl-acetyl)-1,2,3,4-tetrahydro-isoquinolin-1-yl]-phenoxy}-acetic acid]",7.36
8,"COc1ccc2[nH]cc(CCC(=O)N3CCc4ccccc4C3c3cc(Cl)ccc3OCC(=O)O)c2c1 (racemic) [Example 74, (±)-(4-Chloro-2-{2-[3-(5-methoxy-1H-indol-3-yl)-propionyl]-1,2,3,4-tetrahydro-isoquinolin-1-yl}-phenoxy)-acetic acid]",8.85
9,"Cn1cc(CCC(=O)N2CCc3ccccc3C2c2cc(Cl)ccc2OCC(=O)O)c2ccccc21 (racemic) [Example 76, (±)-(4-Chloro-2-{2-[3-(1-methyl-1H-indol-3-yl)-propionyl]-1,2,3,4-tetrahydro-isoquinolin-1-yl}-phenoxy)-acetic acid]",8.35
10,"O=C(O)COc1ccc(Cl)cc1C1c2ccccc2CCN1C(=O)Cn1cnc2ccccc21 (racemic) [Example 78, (±)-{2-[2-(2-Benzoimidazol-1-yl-acetyl)-1,2,3,4-tetrahydro-isoquinolin-1-yl]-4-chloro-phenoxy}-acetic acid]",7.29
11,"O=C(O)COc1ccc(Cl)cc1C1c2ccccc2CCN1C(=O)CN1CCCc2ccccc21 (racemic) [Example 79, (±)-{4-Chloro-2-[2-(2-3,4-dihydro-2H-quinolin-1-yl-acetyl)-1,2,3,4-tetrahydro-isoquinolin-1-yl]-phenoxy}-acetic acid]",7.20
12,"O=C(O)COc1ccc(Cl)cc1C1c2ccccc2CCN1C(=O)CCc1cccc(C(F)(F)F)c1 (racemic) [Example 81, (±)-(4-Chloro-2-{2-[3-(3-trifluoromethyl-phenyl)-propionyl]-1,2,3,4-tetrahydro-isoquinolin-1-yl}-phenoxy)-acetic acid]",7.56
13,"O=C(O)COc1ccc(Cl)cc1C1c2ccccc2CCN1C(=O)CCc1nccn1-c1ccccc1 (racemic) [Example 83, (±)-(4-Chloro-2-{2-[3-(1-phenyl-1H-imidazol-2-yl)-propionyl]-1,2,3,4-tetrahydro-isoquinolin-1-yl}-phenoxy)-acetic acid]",6.37
14,"Cc1cccc(-n2cncc2CCC(=O)N2CCc3ccccc3C2c2cc(Cl)ccc2OCC(=O)O)c1C (racemic) [Example 85, (±)-[4-Chloro-2-(2-{3-[3-(2,3-dimethyl-phenyl)-3H-imidazol-4-yl]-propionyl}-1,2,3,4-tetrahydro-isoquinolin-1-yl)-phenoxy]-acetic acid]",7.72
15,"O=C(O)COc1ccc(Cl)cc1C1c2ccccc2CCN1C(=O)CCc1ccccc1C(F)(F)F (racemic) [Example 90, (±)-(4-Chloro-2-{2-[3-(2-trifluoromethyl-phenyl)-propionyl]-1,2,3,4-tetrahydro-isoquinolin-1-yl}-phenoxy)-acetic acid]",7.34
16,"O=C(O)COc1ccc(Cl)cc1C1c2ccccc2CCN1C(=O)Cc1c[nH]c2ccc(F)cc12 (racemic) [Example 91, (±)-(4-Chloro-2-{2-[2-(5-fluoro-1H-indol-3-yl)-acetyl]-1,2,3,4-tetrahydro-isoquinolin-1-yl}-phenoxy)-acetic acid]",6.95
17,"O=C(O)COc1ccc(Cl)cc1C1c2ccccc2CCN1C(=O)CCCc1ccc(Cl)cc1 (racemic) [Example 93, (±)-(4-Chloro-2-{2-[4-(4-chloro-phenyl)-butyryl]-1,2,3,4-tetrahydro-isoquinolin-1-yl}-phenoxy)-acetic acid]",7.89

# Results, then the compound that gave them:
row,pIC50,SMILES
1,6.86,"COCCC(=O)N1CCc2ccccc2C1c1cc(Cl)ccc1OCC(=O)O (racemic) [Example 70, (±)-{4-Chloro-2-[2-(3-methoxy-propionyl)-1,2,3,4-tetrahydro-isoquinolin-1-yl]-phenoxy}-acetic acid]"
2,6.54,"O=C(O)COc1ccc(Cl)cc1C1c2ccccc2CCN1C(=O)Cc1ccccc1Cl (racemic) [Example 71, (±)-(4-Chloro-2-{2-[2-(2-chloro-phenyl)-acetyl]-1,2,3,4-tetrahydro-isoquinolin-1-yl}-phenoxy)-acetic acid]"
3,8.38,"Cc1[nH]c2ccccc2c1CCC(=O)N1CCc2ccccc2C1c1cc(Cl)ccc1OCC(=O)O (racemic) [Example 73, (±)-(4-Chloro-2-{2-[3-(2-methyl-1H-indol-3-yl)-propionyl]-1,2,3,4-tetrahydro-isoquinolin-1-yl}-phenoxy)-acetic acid]"
4,8.43,"Cc1ccc(OCC(=O)N2CCc3ccccc3C2c2cc(Cl)ccc2OCC(=O)O)c(C)n1 (racemic) [Example 75, (±)-(4-Chloro-2-{2-[2-(2,6-dimethyl-pyridin-3-yloxy)-acetyl]-1,2,3,4-tetrahydro-isoquinolin-1-yl}-phenoxy)-acetic acid]"
5,7.33,"O=C(O)COc1ccc(Cl)cc1C1c2ccccc2CCN1C(=O)Cn1cc2ccccc2n1 (racemic) [Example 80, (±)-{4-Chloro-2-[2-(2-indazol-2-yl-acetyl)-1,2,3,4-tetrahydro-isoquinolin-1-yl]-phenoxy}-acetic acid]"
6,6.37,"O=C(O)COc1ccc(Cl)cc1C1c2ccccc2CCN1C(=O)COc1ccccc1-c1ccccc1 (racemic) [Example 86, (±)-(2-{2-[2-(Biphenyl-2-yloxy)-acetyl]-1,2,3,4-tetrahydro-isoquinolin-1-yl}-4-chloro-phenoxy)-acetic acid]"
7,7.75,"O=C(O)COc1ccc(Cl)cc1C1c2ccccc2CCN1C(=O)CCOc1cccc(F)c1 (racemic) [Example 87, (±)-(4-Chloro-2-{2-[3-(3-fluoro-phenoxy)-propionyl]-1,2,3,4-tetrahydro-isoquinolin-1-yl}-phenoxy)-acetic acid]"
8,6.83,"Cc1ccc(OCCC(=O)N2CCc3ccccc3C2c2cc(Cl)ccc2OCC(=O)O)cc1 (racemic) [Example 88, (±)-{4-Chloro-2-[2-(3-p-tolyloxy-propionyl)-1,2,3,4-tetrahydro-isoquinolin-1-yl]-phenoxy}-acetic acid]"
9,7.42,"O=C(O)COc1ccc(Cl)cc1C1c2ccccc2CCN1C(=O)CCOc1ccc(Cl)cc1 (racemic) [Example 89, (±)-(4-Chloro-2-{2-[3-(4-chloro-phenoxy)-propionyl]-1,2,3,4-tetrahydro-isoquinolin-1-yl}-phenoxy)-acetic acid]"
10,8.54,"COc1ccc2c(CC(=O)N3CCc4ccccc4C3c3cc(Cl)ccc3OCC(=O)O)coc2c1 (racemic) [Example 92, (±)-(4-Chloro-2-{2-[2-(6-methoxy-benzofuran-3-yl)-acetyl]-1,2,3,4-tetrahydro-isoquinolin-1-yl}-phenoxy)-acetic acid]"
